Data from PMC10947119 (Angewandte Chemie (International Ed. in English), 2023).

Tests used:
[1] = target: T1, MtbPPAT (Mycobacterium tuberculosis, UniProt P9WPA5); type: binding; settings: for Affinity increase (KD lower) relative to parent indole fragment 12: KD by ITC vs KD of 12
[2] = target: T1, MtbPPAT; experiment: MtbPPAT activity assay; type: biochemical; settings: 1 mM compound, ATP 120, 240, 500 µM
[3] = tested on: wildtype Mtb H37RvMA; type: cell-based, Mycobacterium tuberculosis
[4] = tested on: PPAT of Mycobacterium abscessus; settings: cited from earlier work
[5] = tested on: Mycobacterium abscessus; settings: cited from earlier work
[6] = target: T1, MtbPPAT; settings: read-out: KD, previous estimates; ITC, near-identical conditions; cited from earlier work

T1 sequence (P9WPA5 whole entry, looked up, the tested form may be a part): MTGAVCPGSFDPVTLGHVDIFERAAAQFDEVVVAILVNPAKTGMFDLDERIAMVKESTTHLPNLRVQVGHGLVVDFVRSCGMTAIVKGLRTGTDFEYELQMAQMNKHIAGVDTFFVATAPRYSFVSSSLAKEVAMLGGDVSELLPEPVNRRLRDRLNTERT

O=C(O)c1cnn(-c2ccccc2)c1OCCCc1c[nH]c2ccccc12 [compound 20]
Affinity increase (KD lower) relative to parent indole fragment 12 [1]: ≈ 65 fold
Ligand efficiency LE ([1]; from direct ITC KD, Condition 1 (20 mM NaCl)): 0.24 kcal mol^−1 NHA^−1
Mode of inhibition of MtbPPAT activity [2]: ATP‐competitive manner
Effect of ATc on potency [3]: no effect
Affinity for M. abscessus PPAT [4]: low‐micromolar affinity
Whole-cell activity against M. abscessus [5]: lacked whole‐cell activity

CC(C)(COP(=O)(O)OP(=O)(O)OC[C@H]1O[C@@H](n2cnc3c(N)ncnc32)[C@H](O)[C@@H]1OP(=O)(O)O)[C@@H](O)C(=O)NCCC(=O)NCCS [CoA, coenzyme A]
Kd [6]: ≥ 13 µM

O=C(O)c1cnn(-c2ccccc2)c1OCCc1c[nH]c2ccccc12 [compound 19]
Affinity increase (KD lower) relative to parent indole fragment 12 [1]: ≈ 25 fold
